Measured values: the supplement of paper PMC10307832

Tests used:
Assay in all cases: relative viability (nuclei count vs DMSO), 5 days (fraction); higher = more cells survive
Doxorubicin + Luminespib = compound: COc1cccc2c1C(=O)c1c(O)c3c(c(O)c1C2=O)C[C@@](O)(C(=O)CO)C[C@@H]3O[C@H]1C[C@H](N)[C@H](O)[C@H](C)O1 [Doxorubicin] + CCNC(=O)c1noc(-c2cc(C(C)C)c(O)cc2O)c1-c1ccc(CN2CCOCC2)cc1 [Luminespib] (partner 0.01 µM)
Summary of the method: (§1)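 Lung cancer cell lines in 1536-well plates got either a single drug or a fixed anchor-drug dose together with five library-drug doses (not always all listed) in √10 steps, by pin tool, on the day after seeding. Nuclei were counted after 5 days, and relative viability is the treated-to-vehicle ratio of nuclei counts. Values are medians of duplicate plates.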

BAY61-3606 + Crizotinib = compound: COC1=C(C=C(C=C1)C2=CC3=NC=CN3C(=N2)NC4=C(C=CC=N4)C(=O)N)OC [BAY61-3606] + C[C@@H](Oc1cc(-c2cnn(C3CCNCC3)c2)cnc1N)c1c(Cl)ccc(F)c1Cl [Crizotinib] (partner 1 µM)
Summary of the method: as §1

Doxorubicin + Dasatinib = compound: COc1cccc2c1C(=O)c1c(O)c3c(c(O)c1C2=O)C[C@@](O)(C(=O)CO)C[C@@H]3O[C@H]1C[C@H](N)[C@H](O)[C@H](C)O1 [Doxorubicin] + Cc1nc(Nc2ncc(C(=O)Nc3c(C)cccc3Cl)s2)cc(N2CCN(CCO)CC2)n1 [Dasatinib] (partner 0.075 µM)
Summary of the method: as §1

Doxorubicin + Navitoclax = compound: COc1cccc2c1C(=O)c1c(O)c3c(c(O)c1C2=O)C[C@@](O)(C(=O)CO)C[C@@H]3O[C@H]1C[C@H](N)[C@H](O)[C@H](C)O1 [Doxorubicin] + CC1(C)CCC(c2ccc(Cl)cc2)=C(CN2CCN(c3ccc(C(=O)NS(=O)(=O)c4ccc(N[C@H](CCN5CCOCC5)CSc5ccccc5)c(S(=O)(=O)C(F)(F)F)c4)cc3)CC2)C1 [Navitoclax] (partner 0.5 µM)
Summary of the method: as §1

| Cell Line | relative viability (Doxorubicin + Luminespib; first compound 0.001 µM) | relative viability (Doxorubicin + Luminespib; first compound 0.003162 µM) | relative viability (Doxorubicin + Luminespib; first compound 0.01 µM) | relative viability (Doxorubicin + Luminespib; first compound 0.03162 µM) | relative viability (Doxorubicin + Luminespib; first compound 0.1 µM) | relative viability (BAY61-3606 + Crizotinib; first compound 0.02 µM) | relative viability (BAY61-3606 + Crizotinib; first compound 0.2 µM) | relative viability (BAY61-3606 + Crizotinib; first compound 0.6325 µM) | relative viability (BAY61-3606 + Crizotinib; first compound 2 µM) | relative viability (Doxorubicin + Dasatinib; first compound 0.001 µM) | relative viability (Doxorubicin + Dasatinib; first compound 0.003162 µM) | relative viability (Doxorubicin + Dasatinib; first compound 0.01 µM) | relative viability (Doxorubicin + Dasatinib; first compound 0.03162 µM) | relative viability (Doxorubicin + Dasatinib; first compound 0.1 µM) | relative viability (Doxorubicin + Navitoclax; first compound 0.001 µM) | relative viability (Doxorubicin + Navitoclax; first compound 0.003162 µM) | relative viability (Doxorubicin + Navitoclax; first compound 0.01 µM) | relative viability (Doxorubicin + Navitoclax; first compound 0.03162 µM) | relative viability (Doxorubicin + Navitoclax; first compound 0.1 µM) | relative viability (BAY61-3606 + Crizotinib; first compound 0.06325 µM) |
| --- | --- | --- | --- | --- | --- | --- | --- | --- | --- | --- | --- | --- | --- | --- | --- | --- | --- | --- | --- | --- |
| NCI-H1666 | 1.01 | 0.868 | 0.735 | 0.442 | 0.411 | 1.13 | 0.782 | 0.968 | 0.969 | 0.812 | 0.811 | 0.461 | 0.359 | 0.318 | 0.882 | 0.953 | 0.55 | 0.282 | 0.275 | – |
| NCI-H1734 | 0.869 | 0.196 | 0.175 | 0.18 | 0.213 | 0.635 | 0.601 | 0.674 | 0.272 | 0.517 | 0.572 | 0.385 | 0.317 | 0.255 | 0.788 | 1.02 | 0.847 | 0.696 | 0.84 | 0.53 |
| NCI-H1755 | 0.361 | 0.273 | 0.597 | 0.381 | 0.323 | 0.787 | 0.839 | 0.982 | 0.721 | 0.444 | 0.288 | 0.437 | 0.434 | 0.554 | 1 | 1.03 | 0.927 | 0.991 | 1.02 | 0.786 |
| NCI-H1792 | – | 0.467 | 0.43 | 0.527 | 0.328 | 0.944 | 0.777 | 0.947 | 1.08 | – | 0.901 | 0.741 | 0.769 | 0.706 | 0.634 | 0.556 | 0.62 | 0.582 | 0.597 | 1.03 |
| NCI-H1915 | 0.802 | 0.733 | 0.702 | 0.715 | 0.779 | 0.899 | 0.857 | 0.868 | 0.707 | 0.281 | 0.355 | 0.308 | 0.302 | 0.324 | 0.778 | 0.813 | 0.788 | 0.784 | 0.829 | 0.914 |
| NCI-H1944 | 0.725 | 0.733 | 0.751 | 0.674 | 0.651 | 1.08 | 0.912 | 1.07 | 0.637 | 0.18 | 0.206 | 0.216 | 0.165 | 0.174 | 1.05 | 1.13 | 1.03 | 0.977 | 1.19 | 1.04 |
| NCI-H1975 | 0.139 | 0.183 | 0.249 | 0.167 | 0.178 | 0.921 | 0.907 | 0.888 | 0.585 | 0.406 | 0.356 | 0.331 | 0.304 | 0.158 | 1.2 | 1.22 | 1.06 | 0.791 | 0.569 | 0.947 |
| NCI-H1993 | 1.8 | 0.859 | 0.8 | 0.713 | 0.727 | 0.949 | 0.807 | 0.827 | 0.636 | 0.714 | 0.6 | 0.512 | 0.479 | 0.427 | 0.947 | 0.876 | 0.884 | 1.01 | 0.889 | 0.87 |
